Drawing on PubChem BioAssay AID588646 (The Scripps Research Institute Molecular Screening Center, 2011), this text covers fold change and inhibition for three compounds.

Structures are written as SMILES. Activity calls are given as the source filed them.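 Rule for the calls: active = phosphorylated p38 level fell or rose by at least 30% against DMSO-treated cells; inactive = change under 30% either way.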

The experiment has as its target Mitogen-activated protein kinase 14 (Homo sapiens) (UniProt Q16539). Description: phosphorylated p38 MAPK abundance shift – cell-based, HCT116 colorectal carcinoma, chemiluminescent western blot, counter-screen for KLF5 inhibitor project, late-stage follow-up (AID 588646). The settings on record: HCT116 phospho-p38 western blot, 24 h, at 10 µM; for inhibition: measured here: phospho-p38 inhibition percent. In general terms: In western blotting, separated proteins are transferred to a membrane and probed.

Sequence of Mitogen-activated protein kinase 14 (Homo sapiens) (Q16539 whole entry, looked up): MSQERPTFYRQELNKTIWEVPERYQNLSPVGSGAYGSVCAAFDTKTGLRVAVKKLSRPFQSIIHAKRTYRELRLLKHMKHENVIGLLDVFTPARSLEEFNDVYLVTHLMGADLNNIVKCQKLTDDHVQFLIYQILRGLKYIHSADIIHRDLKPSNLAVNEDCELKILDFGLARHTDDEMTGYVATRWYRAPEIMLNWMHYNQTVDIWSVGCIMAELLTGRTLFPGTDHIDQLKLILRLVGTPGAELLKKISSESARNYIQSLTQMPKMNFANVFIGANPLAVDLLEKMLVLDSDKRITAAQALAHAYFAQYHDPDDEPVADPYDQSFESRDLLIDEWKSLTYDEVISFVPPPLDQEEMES

One may read the inhibition as the change of the read-out against control, counted positive when it falls. Consider `CN(C(=O)CNC(=O)/C=C/c1cccc(Cl)c1)C1CCS(=O)(=O)C1` (stereo not given), for which the fold change is -1.14 (inactive) and the inhibition came to 11.9%. On to `CN(C(=O)CNC(=O)/C=C/c1cccc(Cl)c1)C1CCS(=O)(=O)CC1`, for which the fold change was 7.64. Regarding `CN(C(=O)COC(=O)/C=C/c1cccc([N+](=O)[O-])c1)C1CCS(=O)(=O)C1` (stereo not given), the fold change is 2.03 and the inhibition was -103%.
